In PMC11808539 (Bioorganic & medicinal chemistry letters, 2024):

Assays:
GSK-3 = GSK-3 inhibition, isoform not stated; type: biochemical; details: no activity defined as an IC50 >10μM
broad kinase screen = details: cited from earlier work
[1] = test system: other kinases tested having a lysine at a position comparable to Arg141 in GSK-3β; details: kinases with lysine at position comparable to Arg141; at 2 μM; cited from earlier work
MAPK5/PRAK = details: at 2μM; cited from earlier work

SMILES	activity (GSK-3 inhibition, in words) (GSK-3)	kinase selectivity (in words) (broad kinase screen)	% inhibition [1] [%]	% inhibition (MAPK5/PRAK) [%]
OC1(c2ccccc2)CSC(=S)N1Cc1ccccc1 (stereo not drawn) [Compound 3a]	no activity			
OC1(c2ccccc2)CSC(=S)N1Cc1ccncc1 (stereo not drawn) [Compound 3c]	excellent activity	the only kinases significantly inhibited by 3c were GSK-3β and GSK-3α	< 30	60
OC1(c2ccccc2)CSC(=S)N1Cc1ccccn1 (stereo not drawn) [Compound 3d]	no activity			
